Here are results for one compound from patent US7888357B2, “Anti-inflammatory and protein kinase inhibitor compositions and related methods for downregulation of detrimental cellular responses and inhibition of cell death” (Northwestern University, priority 2001, dated 2011).

pIC50: −log10 of the molar value. A value given as a limit tells only on which side of the number the result lay.

For one experiment, the target named is T1, p38 MAPK (Xenopus laevis, UniProt P47812).
T1 construct: purchased Upstate Biotechnology
Kind of experiment: Reconstituted enzyme assay, p38 MAPK. As to conditions: γ-[32P]-ATP, synthetic peptide substrate. The format is biochemical. How it is done: [table] […] The rationale for using BV-2 cells in high throughput screening was the paucity of well-characterized human microglial cell lines, and the relevant activation responses and signaling pathways reflect those seen in human and rodent primary microglial cultures. Compounds were tested for their effects on NO accumulation in conditioned media of LPS-stimulated BV-2 cells by measurement of nitrite production by the Griess assay as a read-out for iNOS activity, as described previously. Stock solutions of compounds were prepared in dimethylsulfoxide (DMSO) or in water. When stock solutions were prepared in DMSO, control wells contained the same final concentration of DMSO as the compound-containing wells. […] Solutions of compounds for cell treatments were diluted to a 10× final concentration by dilution of stock solutions in αMEM media. […] Reconstituted enzyme assays were done as described s. The sources of protein kinases were: bovine heart PKA from Promega, rat brain PKC from Calbiochem, rat CaMKII from New England Biolabs, chicken gizzard MLCK prepared as described, and a p38 MAP kinase kit containing recombinant Xenopus p38-MAPK and its human substrate from Upstate Biotechnology. […]

In experiment [1] the target is T2, myosin light chain kinase (MLCK) (Gallus gallus, UniProt P11799).
T2 construct: chicken gizzard MLCK prepared as described; from tissue; host or cells: chicken gizzard
Briefly: Reconstituted enzyme assay, MLCK. The conditions noted are these: γ-[32P]-ATP, synthetic peptide substrate; mean ± SEM; read-out: IC50 MLCK. The format is biochemical, chicken. As to the method: (§1) [table] […] The rationale for using BV-2 cells in high throughput screening was the paucity of well-characterized human microglial cell lines, and the relevant activation responses and signaling pathways reflect those seen in human and rodent primary microglial cultures. Compounds were tested for their effects on NO accumulation in conditioned media of LPS-stimulated BV-2 cells by measurement of nitrite production by the Griess assay as a read-out for iNOS activity, as described previously. Stock solutions of compounds were prepared in dimethylsulfoxide (DMSO) or in water. When stock solutions were prepared in DMSO, control wells contained the same final concentration of DMSO as the compound-containing wells. […] Solutions of compounds for cell treatments were diluted to a 10× final concentration by dilution of stock solutions in αMEM media. […] Reconstituted enzyme assays were done as described s. The sources of protein kinases were: bovine heart PKA from Promega, rat brain PKC from Calbiochem, rat CaMKII from New England Biolabs, chicken gizzard MLCK prepared as described, and a p38 MAP kinase kit containing recombinant Xenopus p38-MAPK and its human substrate from Upstate Biotechnology. The catalytic domains of these protein kinases retain a high level of amino acid sequence identity across mammalian species, consistent with the lack of documented major differences across species for the in vitro catalytic activity of a given kinase.

A further experiment addresses protein kinase C (PKC). Briefly: Reconstituted enzyme assay, PKC. In kind it is biochemical, rat. The conditions noted are these: γ-[32P]-ATP, synthetic peptide substrate; read-out: IC50 PKC. How it is done:
as §1

In a further experiment the test system is rat astrocytes. Briefly: Western blot of glial activation responses in rat astrocyte cultures. The conditions noted are these: for GFAP levels: activated rat astrocytes. The format is cell-based. As to the method: FIG. 2. Selective effects of compound 1 (MW01-070C) on glial activation responses and gene-regulating protein kinase pathways. BV-2 cells and rat astrocytes were treated with control buffer (C) or stimulated with LPS or Aβ1-42 peptide in the presence or absence of compound 1, and cell lysates were analyzed by Western blots. (A) Astrocytes treated with LPS and compound 1 show concentration-dependent inhibition of iNOS and IL-1β production but not GFAP. (B) Astrocytes treated with A β1-42 and compound 1 (10 μM) show inhibition of iNOS and IL-1β but not apoE and COX-2. (C) BV-2 cells treated with LPS and compound 1 (10 μM) show inhibition of phosphorylated (p-) CREB but not p-p38 and p-ATF2, as assayed with antibodies that are specific for the phosphorylated forms of the proteins. Data are expressed as percent control (mean±SD; n=3 determinations).
The rationale for using BV-2 cells in high throughput screening was the paucity of well-characterized human microglial cell lines, and the relevant activation responses and signaling pathways reflect those seen in human and rodent primary microglial cultures. Compounds were tested for their effects on NO accumulation in conditioned media of LPS-stimulated BV-2 cells by measurement of nitrite production by the Griess assay as a read-out for iNOS activity, as described previously. Stock solutions of compounds were prepared in dimethylsulfoxide (DMSO) or in water. When stock solutions were prepared in DMSO, control wells contained the same final concentration of DMSO as the compound-containing wells. […] Solutions of compounds for cell treatments were diluted to a 10× final concentration by dilution of stock solutions in αMEM media. The commercially available drugs tested were: compound 5 (KN93 from Alexis); compound 6 (pyrrolidinedithiocarbamate or PDTC from Sigma), compound 7 (SB203580 from Alexis Corporation), compound 8 (PD98059 from Alexis Corporation), and compound 9 (UO126 from Cell Signaling). SB203580, U0126 and PD98059, PDTC, and KN93 are used as pathway-selective inhibitors of p38 MAPK, MEK1/2, NFκB, and CaMKII signaling pathways. Respectively, Western blots of cell lysates were done with the following antibodies: monoclonal anti-iNOS (1:1000 dilution, Transduction Labs); polyclonal anti-rat IL-1β (1:1000 dilution, R&D Systems, Inc.); monoclonal anti-glial fibrillary acidic protein (GFAP) (1:[…] dilution, Sigma); polyclonal anti-rat alioE (1:15,000 dilution) prepared as described; polyclonal anti-COX-2 (1:500 dilution) and monoclonal anti-phosphoATF2 (1:1000 dilution) from Santa Cruz Biotechnology, polyclonal anti-phosphoCREB (1:1000 dilution), and polyclonal anti-phosphop38 MAPK (1:1000 dilution). Reconstituted enzyme assays were done as described s. The sources of protein kinases were: bovine heart PKA from Promega, rat brain PKC from Calbiochem, rat CaMKII from New England Biolabs, chicken gizzard MLCK prepared as described, and a p38 MAP kinase kit containing recombinant Xenopus p38-MAPK and its human substrate from Upstate Biotechnology. The catalytic domains of these protein kinases retain a high level of amino acid sequence identity across mammalian species, consistent with the lack of documented major differences across species for the in vitro catalytic activity of a given kinase.
FIG. 5. Effects of two compounds on LPS-stimulated INOS and IL-1β production in rat astrocyte cultures. Astrocyte cultures were incubated for 24 hr with control buffer (C), LPS (100 ng/ml) alone, or LPS in the presence of increasing concentrations (0.1, 0.3, 1, 3, 10 μM) of MW01-070C (panel A) or MW01-196A (panel B). The levels of iNOS, proIL-1β, and GFAP were determined by Western blot of cell lysates.
FIG. 6. Effects of MW01-070C on astrocytes treated with various activating stimuli, and analysis of multiple activation responses. Astrocyte cultures were stimulated for 12 hr with Aβ (10 μM), S100B (0.5 μM), or LPS (100 ng/ml) in the absence (−) or presence (+) of MW01-070C (10 μM). […]

The mark [2] stands for this setting: LPS-stimulated rat astrocytes, 24 hr, Western blot.
The mark [3] stands for this setting: LPS-stimulated rat astrocytes, 24 hr, Western blot, listed as 1.
Setting [4] is: activated astrocytes, compound 10 μM.
[5] abbreviates: astrocytes stimulated by S100 (0.5 μM), 12 hr, compound 10 μM.
[6] abbreviates: glia stimulated by Aβ1-42, compound 10 μM.

T1 sequence (P47812 whole entry): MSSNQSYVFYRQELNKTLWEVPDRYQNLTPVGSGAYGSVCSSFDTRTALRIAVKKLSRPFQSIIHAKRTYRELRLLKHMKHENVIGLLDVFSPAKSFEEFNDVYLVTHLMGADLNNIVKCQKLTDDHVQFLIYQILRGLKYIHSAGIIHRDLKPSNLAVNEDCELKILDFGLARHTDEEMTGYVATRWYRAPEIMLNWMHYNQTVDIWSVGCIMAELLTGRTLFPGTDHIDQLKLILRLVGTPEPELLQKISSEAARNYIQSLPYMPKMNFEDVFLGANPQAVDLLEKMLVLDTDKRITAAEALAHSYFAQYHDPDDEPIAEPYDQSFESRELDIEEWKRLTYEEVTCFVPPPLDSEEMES
T2 sequence (P11799 935-1906): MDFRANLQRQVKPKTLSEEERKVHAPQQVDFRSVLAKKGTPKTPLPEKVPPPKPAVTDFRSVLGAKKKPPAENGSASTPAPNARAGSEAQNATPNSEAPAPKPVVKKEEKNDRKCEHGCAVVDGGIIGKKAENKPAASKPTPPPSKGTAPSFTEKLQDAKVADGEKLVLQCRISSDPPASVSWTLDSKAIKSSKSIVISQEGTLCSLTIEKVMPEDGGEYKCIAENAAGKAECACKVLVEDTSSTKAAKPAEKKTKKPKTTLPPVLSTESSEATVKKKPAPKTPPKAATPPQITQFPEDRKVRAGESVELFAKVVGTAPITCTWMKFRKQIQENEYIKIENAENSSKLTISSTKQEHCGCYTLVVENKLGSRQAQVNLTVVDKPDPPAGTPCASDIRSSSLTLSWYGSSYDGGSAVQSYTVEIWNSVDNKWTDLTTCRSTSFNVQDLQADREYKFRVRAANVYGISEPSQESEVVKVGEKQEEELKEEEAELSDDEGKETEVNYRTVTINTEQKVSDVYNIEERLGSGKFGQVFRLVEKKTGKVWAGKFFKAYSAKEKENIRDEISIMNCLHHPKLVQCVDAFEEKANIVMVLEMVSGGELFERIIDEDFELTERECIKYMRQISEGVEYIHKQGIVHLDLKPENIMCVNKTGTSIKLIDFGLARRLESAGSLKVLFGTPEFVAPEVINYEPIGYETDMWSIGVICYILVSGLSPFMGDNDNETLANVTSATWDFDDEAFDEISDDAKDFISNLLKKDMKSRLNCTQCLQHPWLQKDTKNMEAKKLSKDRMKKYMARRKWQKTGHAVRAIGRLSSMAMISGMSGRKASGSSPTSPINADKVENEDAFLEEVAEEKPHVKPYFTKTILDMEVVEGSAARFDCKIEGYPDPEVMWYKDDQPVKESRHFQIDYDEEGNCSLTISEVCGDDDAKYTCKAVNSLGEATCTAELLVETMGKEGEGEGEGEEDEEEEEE

For the compound `N=c1cc2c(nn1CCCCCCCCCCC(=O)N1CCN(c3ncccn3)CC1)-c1ccccc1CC2` [MW01-070C], the pIC50 (against p38 MAPK; in experiment [1]; on protein kinase C (PKC)) was below 4.00 throughout. For the same compound, the IL-1β production result with rat astrocytes (setting [2]) is listed as “dose dependent inhibition”; in the experiment with rat astrocytes (setting [3]) it was “inhibits”; with rat astrocytes (setting [5]), “inhibits”; with rat astrocytes (setting [6]), “inhibits”. Besides, the iNOS production result in the experiment on rat astrocytes (setting [2]) is on record as “dose dependent inhibition”; in the experiment on rat astrocytes (setting [3]) it was “inhibits”; in the experiment on rat astrocytes (setting [5]), “inhibits”; with rat astrocytes (setting [6]), “inhibits”. The COX-2 levels result in the experiment on rat astrocytes (setting [4]) is recorded as “no effect”. The apoE production result with rat astrocytes (setting [4]) is “no effect”. The GFAP levels entry with rat astrocytes (Western blot) is “no change”; in the experiment on rat astrocytes (Western blot, listed as 1), “not changed”.
